Measurements reported in patent US20230158005A1 (priority 2020, published 2023).
Values joined by “and” are separate entries in the source; they are usually repeats but may differ in a detail not shown here. Equal values may be shown once.

How the values were obtained:
[1] = tested on: A/Anhui/1/2013 (H7N9); assay type: cell-based, influenza A virus
[2] = tested on: A549 human lung carcinoma cells; conditions: human
[3] = tested on: A/Puerto Rico/8/1934 (H1N1); assay type: cell-based, influenza A virus
[4] = tested on: A/California/02/2014 (H3N2); assay type: cell-based, influenza A virus
[5] = tested on: A/Texas/71/2007 (H3N2); assay type: cell-based, influenza A virus
[6] = in vitro; conditions: human, % Dif (absorbance as percent relative to the vehicle control, relative viability)
[7] = tested on: relapsed/refractory, locally advanced or metastatic solid tumors; conditions: preliminary clinical results, cited from earlier work
[8] = tested on: A/Indiana/08/2011 (H3N2); assay type: cell-based, influenza A virus
[9] = tested on: A/Hawaii/15/2001 (H1N1); assay type: cell-based, influenza A virus
[10] = tested on: A/New Jersey/8/1976 (H1N1); assay type: cell-based, influenza A virus
[11] = tested on: A/Solomon Islands/03/2006 (H1N1); assay type: cell-based, influenza A virus
[12] = tested on: Nipah virus (Malaysian strain); test: microbe, parasite or virus in culture; assay type: cell-based
[13] = tested on: A/Indonesia/05/2005 (H5N1); assay type: cell-based, influenza A virus
[14] = tested on: A/Perth/16/2009 (H3N2); assay type: cell-based, influenza A virus
[15] = in vitro; conditions: human
[16] = tested on: A/Hong Kong/156/1997 (H5N1); assay type: cell-based, influenza A virus
[17] = tested on: A/Vietnam/1203/2004 (H5N1); assay type: cell-based, influenza A virus
[18] = tested on: NL4-3 WT HIV-1 virus; test: Infectious HIV-1 released by infected MT-2 cells (TZM-bl luciferase reporter); assay type: cell-based; conditions: 10 nM, 48 hours
[19] = tested on: A/Alaska/140/2015 (H3N2); assay type: cell-based, influenza A virus
[20] = tested on: A/USSR/90/1977 (H1N1); assay type: cell-based, influenza A virus
[21] = tested on: A/Minnesota/19/2011 (H1N1); assay type: cell-based, influenza A virus
[22] = tested on: A/California/07/2009 (H1N1); assay type: cell-based, influenza A virus
[23] = tested on: A/Fujian/413/2002 (H3N2); assay type: cell-based, influenza A virus
[24] = tested on: A/New Caledonia/20/1999 (H1N1); assay type: cell-based, influenza A virus
[25] = tested on: A/Egypt/N6658/2011 (H5N1); assay type: cell-based, influenza A virus
[26] = tested on: panel of 20 influenza A viruses; assay type: cell-based, influenza A virus
[27] = tested on: MT-2 human T cell line; test: Cytotoxicity against uninfected MT-2 cells; assay type: cell-based; conditions: 1 µM, 48 hours

Structure (SMILES): CC1=C(COCCC(C)(C)C)C(=O)N(Nc2ccc(C(F)(F)F)c(Cl)n2)C1=O [felezonexor, 3-[(3,3-dimethylbutoxy)methyl]-1-{[6-chloro-5-(trifluoromethyl) (2-pyridyl)]amino}-4-methylazoline-2,5-dione]
- Virus titer AVG [1]: 1.50 log10TCID50/mL and 2.50 log10TCID50/mL and 2.67 log10TCID50/mL
- Virus titer, replicates 1-3 [1]: 1.50 log10TCID50/mL (3×) and 2.25 log10TCID50/mL and 2.75 log10TCID50/mL (3×) and 2.50 log10TCID50/mL (2×)
- reduction in viral titers [1]: greater than 1.0 log10TCID50/mL
- tolerated concentration (relative viability equivalent or greater than untreated controls) [2]: up to 100 nM
- % Dif (absorbance as percent relative to the vehicle control, relative viability) ([2]; 0.5 µM): 71.6%
- Virus titer AVG [3]: 3.42 log10TCID50/mL and 4.92 log10TCID50/mL
- Virus titer, replicates 1-3 [3]: 3.50 log10TCID50/mL (2×) and 3.25 log10TCID50/mL (3×) and 4.75 log10TCID50/mL and 4.50 log10TCID50/mL and 3.75 log10TCID50/mL and 5.50 log10TCID50/mL
- reduction in viral titers [3]: greater than 1.0 log10TCID50/mL
- Virus titer, replicates 1-3 [4]: 1.50 log10TCID50/mL (3×) and 5.25 log10TCID50/mL and 6.50 log10TCID50/mL (2×) and 4.75 log10TCID50/mL and 7.75 log10TCID50/mL and 4.50 log10TCID50/mL
- reduction in viral titers [4]: greater than 1.0 log10TCID50/mL
- Virus titer AVG [5]: 2.50 log10TCID50/mL and 3.33 log10TCID50/mL and 3.92 log10TCID50/mL
- Virus titer, replicates 1-3 [5]: 3.25 log10TCID50/mL (2×) and 4.00 log10TCID50/mL and 3.75 log10TCID50/mL (2×) and 2.75 log10TCID50/mL (2×) and 1.50 log10TCID50/mL and 4.25 log10TCID50/mL
- reduction in viral titers [5]: greater than 1.0 log10TCID50/mL
- viability at 0.05 µM [6]: 101%
- viability at 0.1 µM [6]: 125%
- viability at 0.25 µM [6]: 66.2%
- viability at 0.5 µM [6]: 71.6%
- viability at 1 µM [6]: 58.7%
- Safety and tolerability ([7]; 57 patients with solid tumors): manageable
- most common treatment related adverse events ([7]; 57 patients with solid tumors): gastrointestinal (nausea, vomiting, and diarrhea) and constitutional (fatigue, decreased appetite)
- antitumor activity ([7]; 57 patients, heavily pre-treated solid tumors): durable responses, including a partial response
- Virus titer, replicates 1-3 [8]: 3.25 log10TCID50/mL (2×) and 5.50 log10TCID50/mL (2×) and 6.75 log10TCID50/mL and 6.50 log10TCID50/mL and 7.50 log10TCID50/mL and 2.75 log10TCID50/mL and 8.50 log10TCID50/mL
- reduction in viral titers [8]: greater than 1.0 log10TCID50/mL
- Virus titer AVG [9]: 2.67 log10TCID50/mL and 3.67 log10TCID50/mL and 4.83 log10TCID50/mL
- Virus titer, replicates 1-3 [9]: 2.50 log10TCID50/mL and 3.75 log10TCID50/mL (2×) and 4.75 log10TCID50/mL (2×) and 2.75 log10TCID50/mL (2×) and 3.50 log10TCID50/mL and 5.00 log10TCID50/mL
- Virus titer AVG [10]: 3.67 log10TCID50/mL and 4.00 log10TCID50/mL and 4.17 log10TCID50/mL
- Virus titer, replicates 1-3 [10]: 3.75 log10TCID50/mL (3×) and 3.50 log10TCID50/mL (2×) and 4.25 log10TCID50/mL (3×) and 4.50 log10TCID50/mL
- reduction in viral titers [10]: greater than 1.0 log10TCID50/mL
- Virus titer AVG [11]: 6.00 log10TCID50/mL and 7.17 log10TCID50/mL and 7.79 log10TCID50/mL
- Virus titer, replicates 1-3 [11]: 6.50 log10TCID50/mL and 6.75 log10TCID50/mL and 7.38 log10TCID50/mL and 5.75 log10TCID50/mL (2×) and 7.50 log10TCID50/mL (2×) and 8.50 log10TCID50/mL and 7.25 log10TCID50/mL
- selectivity index (SI, CC50/EC50) [12]: 12
- EC50 ([12]; Henipavirus nipahense, HeLa, 48 h, read-out: EC50 (compound concentration that reduces viral replication by 50%)): 20 nM
- Virus titer AVG [13]: 4.83 log10TCID50/mL and 6.92 log10TCID50/mL and 7.58 log10TCID50/mL
- Virus titer, replicates 1-3 [13]: 4.50 log10TCID50/mL and 6.50 log10TCID50/mL and 7.50 log10TCID50/mL (3×) and 5.25 log10TCID50/mL and 6.75 log10TCID50/mL and 4.75 log10TCID50/mL and 7.75 log10TCID50/mL
- reduction in viral titers [13]: greater than 1.0 log10TCID50/mL
- Virus titer, replicates 1-3 [14]: 2.25 log10TCID50/mL and 3.50 log10TCID50/mL (2×) and 4.75 log10TCID50/mL and 1.50 log10TCID50/mL and 4.25 log10TCID50/mL (2×) and 2.50 log10TCID50/mL and 3.25 log10TCID50/mL
- CC50 [15]: 240 nM
- Virus titer AVG [16]: 2.42 log10TCID50/mL and 3.58 log10TCID50/mL and 4.50 log10TCID50/mL
- Virus titer, replicates 1-3 [16]: 2.25 log10TCID50/mL (2×) and 3.50 log10TCID50/mL (2×) and 4.25 log10TCID50/mL and 2.75 log10TCID50/mL and 4.75 log10TCID50/mL and 3.75 log10TCID50/mL and 4.50 log10TCID50/mL
- reduction in viral titers [16]: greater than 1.0 log10TCID50/mL
- Virus titer AVG [17]: 6.58 log10TCID50/mL and 8.50 log10TCID50/mL and 8.17 log10TCID50/mL
- Virus titer, replicates 1-3 [17]: 6.50 log10TCID50/mL (2×) and 8.25 log10TCID50/mL (2×) and 8.50 log10TCID50/mL and 6.75 log10TCID50/mL and 7.75 log10TCID50/mL (2×) and 9.50 log10TCID50/mL
- reduction in viral titers [17]: greater than 1.0 log10TCID50/mL
- reduction of the production of infectious virus [18]: more than 50%
- Virus titer, replicates 1-3 [19]: 1.50 log10TCID50/mL (4×) and 6.50 log10TCID50/mL and 2.50 log10TCID50/mL and 7.00 log10TCID50/mL and 2.25 log10TCID50/mL and 6.25 log10TCID50/mL
- reduction in viral titers [19]: greater than 1.0 log10TCID50/mL
- Virus titer, replicates 1-3 [20]: 1.50 log10TCID50/mL (3×) and 5.25 log10TCID50/mL and 5.75 log10TCID50/mL (3×) and 4.25 log10TCID50/mL (2×)
- reduction in viral titers [20]: greater than 1.0 log10TCID50/mL
- Virus titer, replicates 1-3 [21]: 2.50 log10TCID50/mL and 6.75 log10TCID50/mL (2×) and 7.25 log10TCID50/mL (2×) and 3.25 log10TCID50/mL and 8.50 log10TCID50/mL and 2.75 log10TCID50/mL and 9.25 log10TCID50/mL
- reduction in viral titers [21]: greater than 1.0 log10TCID50/mL
- Virus titer AVG [22]: 2.75 log10TCID50/mL and 4.42 log10TCID50/mL and 5.42 log10TCID50/mL
- Virus titer, replicates 1-3 [22]: 3.25 log10TCID50/mL and 4.25 log10TCID50/mL and 5.50 log10TCID50/mL and 2.50 log10TCID50/mL (2×) and 4.50 log10TCID50/mL (2×) and 5.75 log10TCID50/mL and 5.00 log10TCID50/mL
- reduction in viral titers [22]: greater than 1.0 log10TCID50/mL
- Virus titer AVG [23]: 3.25 log10TCID50/mL and 3.50 log10TCID50/mL
- Virus titer, replicates 1-3 [23]: 3.00 log10TCID50/mL and 3.25 log10TCID50/mL (3×) and 3.50 log10TCID50/mL (2×) and 3.75 log10TCID50/mL (2×) and 2.75 log10TCID50/mL
- reduction in viral titers [23]: no reduction in viral titers
- Virus titer AVG [24]: 7.17 log10TCID50/mL and 6.83 log10TCID50/mL and 7.00 log10TCID50/mL
- Virus titer, replicates 1-3 [24]: 6.75 log10TCID50/mL (2×) and 7.25 log10TCID50/mL (2×) and 8.00 log10TCID50/mL and 6.50 log10TCID50/mL (3×) and 7.50 log10TCID50/mL
- reduction in viral titers [24]: no reduction in viral titers
- Virus titer AVG [25]: 4.08 log10TCID50/mL and 4.33 log10TCID50/mL and 4.92 log10TCID50/mL
- Virus titer, replicates 1-3 [25]: 4.00 log10TCID50/mL and 4.25 log10TCID50/mL (2×) and 5.50 log10TCID50/mL and 4.50 log10TCID50/mL (3×) and 3.75 log10TCID50/mL and 4.75 log10TCID50/mL
- reduction in viral titers [25]: greater than 1.0 log10TCID50/mL
- strains with viral titers reduced at least 3-fold compared to untreated controls [26]: 17 out of 20 strains
- strains with viral titers reduced at least 10-fold compared to untreated controls [26]: 13 out of 20 strains
- MT-2 cells killed [27]: about 50%
